Results: PubChem BioAssay (NCI)
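Compound exposure: 48 hours, 5 concentrations, 96-well plates. At the GI50, growth is halved. TGI marks complete inhibition of growth.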 Where a SMILES comes first, the peptide text is derived from it. [ ]: non-standard residue; d: D form. Phe(4-Cl) = N[CH](Cc1ccc(Cl)cc1)C(=O)O

Assays:
Assay in all cases: DTP human tumour cell line panel, 48 h
[1] = test system: OVCAR-8 ovarian
[2] = test system: COLO 205 colon
[3] = test system: SF-539 CNS
[4] = test system: OVCAR-5 ovarian
[5] = test system: ACHN renal
[6] = test system: SK-MEL-28 melanoma
[7] = test system: U251 CNS
[8] = test system: EKVX NSCLC
[9] = test system: A498 renal
[10] = test system: HCT-15 colon

SMILES	GI50 [1] [µM]	TGI [1] [µM]	GI50 [2] [µM]	TGI [2] [µM]	GI50 [3] [µM]	TGI [3] [µM]	GI50 [4] [µM]	TGI [4] [µM]	GI50 [5] [µM]	TGI [5] [µM]	GI50 [6] [µM]	TGI [6] [µM]	GI50 [7] [µM]	TGI [7] [µM]	GI50 [8] [µM]	TGI [8] [µM]	GI50 [9] [µM]	TGI [9] [µM]	GI50 [10] [µM]	TGI [10] [µM]
COC(=O)Nc1nc2ccc(Oc3ccc(NC(=O)Nc4ccccc4)cc3)cc2[nH]1	0.545	8.04	0.0835	0.487	0.0885	0.878	1.06	> 14.4	0.466	> 25	0.348	6.4	0.126	6.6	2.44	> 25	0.141	4.97	0.135	> 25
CC[O-].CC[O-].O=C1c2ccccc2C(=O)c2c(O)ccc([O-])c21.O=C1c2ccccc2C(=O)c2c(O)ccc([O-])c21.[Ti+4]		> 100		> 100		> 100		> 100		> 100		> 100				> 100		> 100		> 100
CCOC(=O)Sc1ncnc2nc[nH]c12	3.08	> 100	3.92	46.4	2.35	> 100	4.49	> 100	4.65	> 100	43.7	> 100	12.9	> 100	38.5	> 100	14.4	> 100	2.86	> 100
Cc1cc(C)nc(NS(=O)(=O)c2ccc(Nc3c4ccccc4nc4c(C(=O)Nc5ccc(S(=O)(=O)Nc6cc(C)on6)cc5)cccc34)cc2)n1		39.3		34.1		34.7		59		> 100		52.3		41.4		66.7		51.5		> 100
COc1ccc(C(=O)COc2cccc(/C=C3\COc4ccc5ccccc5c4C3=O)c2)cc1	4.5	> 100	16.9	> 100	13.3	> 100	12.9	> 100	80.7	> 100	47.8	> 100	5.61	> 100	4.26	> 100	12.2	87	7.59	> 100
CCc1[nH]c(=O)nc(N)c1-c1ccc(N2CCCCC2)c([N+](=O)[O-])c1		> 100		> 100		> 100		> 100		> 100		> 100		> 100		> 100		> 100		> 100
NC(=S)N/N=C/c1ccc(OC(=O)COc2ccc(Cl)cc2)cn1	3.63	> 100	31.8	> 100	3.64	22.8	41.6	> 100	3.39	> 100	36.4	> 100	4.24	> 100	30.9	> 100	11.9	71	22.9	> 100
O=C(O)CN(c1ccccc1)S(=O)(=O)c1ccccc1[N+](=O)[O-]		> 100		> 100		> 100		> 100		> 100		> 100		> 100		> 100		> 100		> 100
CC(=O)OC1Oc2ccccc2-c2oc(=O)c(-c3cc4ccc(N(C)C)cc4oc3=O)cc21 (stereo not given)	10.3	37.7	16.4	41.5	12.4	27.3	13.2	30.8	10.4	23.2	19.9	56.4	10.5	23.7	1.78	22.2	6.91	26.5	24.3	> 100
O=C1NC(=O)c2ccc([N+](=O)[O-])c3cccc1c23		26.1		30.9		31.8		32.3		33.7		37.8		32.3		62.4		29.1		22.4
COc1ccc(C(C)c2cc3c(cc2OC)OCO3)cc1 (stereo not given)		17.1		0.927		0.275		> 100		> 100		> 100		> 100		> 100		> 100		13.5
N#Cc1nc(C2OC(COC(=O)c3ccccc3)C(OC(=O)c3ccccc3)C2OC(=O)c2ccccc2)oc1N (stereo not given)		> 100		> 100		> 100		> 100		> 100		> 100		> 100		> 100		> 100		> 100
CC(C)(C)OC(=O)Cc1ccc2c(ccn2Cc2ccccc2)c1		> 100		> 100		> 100		> 100		> 100		> 100		> 100		> 100		> 100		> 100
Cc1cc(SCC(=O)c2ccccc2)nc2ccccc12		> 100		> 100		> 100		> 100		> 100		> 100		> 100		> 100		> 100		> 100
C=CCCCCCCCCC(=O)NS(=O)(=O)c1ccccc1		> 100		> 100		> 100		> 100		> 100		> 100		> 100		> 100		> 100		
COC(=O)C1=NC(=S)NC(c2ccccc2)C1c1nc2ccccc2s1 (stereo not given)		> 100		> 100		> 100				> 100		> 100		> 100		> 100		> 100		> 100
CC(O)C(NC(=O)C(Cc1ccccc1)NC(=O)C(NC(=O)C(CCCCN)NC(=O)C(Cc1c[nH]c2ccccc12)NC(=O)C(Cc1ccc(O)cc1)NC(=O)C(Cc1ccc(Cl)cc1)NC(=O)C(N)Cc1ccccc1)C(C)O)C(N)=O (stereo not given) (H-F[Phe(4-Cl)]YWKTFT-NH2; configuration not given here)		67.5		51.7		42.3				40.9		41.8		35.8		32.2		34		41.5
O=C1c2ccccc2-c2c1c1ccccc1c(=O)n2Cc1ccccc1		> 100		> 100		> 100		> 100				> 100		> 100		> 100		> 100		> 100
